{"source": "patent US20250186436A1", "about": "(4E Therapeutics, Inc., priority 2021, published 2025)", "type_in_all_cases": "in vivo", "key": {"[1]": {"assay": "Plasma and brain concentrations, brain to plasma ratio 24 hr after last of five 25 mg/kg PO doses (Example 8)", "conditions": "rats, 24 hr after the last of five 25 mg/kg PO doses; for concentration at 24 hr / concentration at 24 h: Sprague-Dawley, rat, oral, 25 mg/kg; for concentration at 24 h: male", "source_text": "Table 24 provides plasma and brain concentrations at 24 hr after the last dose of five daily PO doses of 4ET-03-053."}, "[2]": {"assay": "Plasma and brain concentrations, brain to plasma ratio in male CD1 mice (Example 3)", "conditions": "2 h post dosing; for concentration at 2 h: male, CD1, mouse"}, "Wistar rats": {"test_system": "Wistar rats", "assay": "Intravenous self-administration with oxycodone and saline regimen", "conditions": "rat, in vivo", "method": "Ten male and eleven female Wistar rats (Charles River, Hollister, CA) were used in this study. Rats were housed in groups of 2-3 per cage prior to surgery, and then individually housed to protect their catheters, in a temperature-controlled (22° C.) vivarium on a 12/12h light/dark cycle (lights off at 8:00 AM) with ad libitum access to food and water. The rats acclimated to the animal facility for at least 7 days before surgery. All procedures adhered to the National Institutes of Health Guide for the Care and Use of Laboratory Animals and were approved by the Institutional Animal Care and Use Committee of The Scripps Research Institute.\nFor surgery, rats were anesthetized with 2 to 3% isoflurane. They were implanted with a silastic catheter (0.3 mm i.d.×0.64 mm o.d.; Dow Corning Co. Midland, MI) into the right external jugular vein under aseptic conditions. The distal end of the catheter was subcutaneously threaded to the back of the rat where it exited via a metal guide cannula (22G; Plastics One Inc., Roanoke, VA) that was anchored at the back of the rat and closed with a small plastic cap and metal cover cap to keep the inside part of the catheter clean and protected (Caine S B, et al. “Effects of dopamine D-1 and D-2 antagonists on cocaine self-administration under different schedules of reinforcement in the rat” J Pharmacol Exp Ther. 270(1):209-18 (1994); Wee S, et al. “Effects of dose and session duration on cocaine self-administration in rats” J Pharmacol Exp Ther. 320(3):1134-43 (2007); Zorrilla E P, et al. “Extended access cocaine self-administration differentially activates dorsal raphe and amygdala corticotropin-releasing factor systems in rats” Addict Biol. 17(2):300-8 (2012); Valtcheva M V, et al. “Surgical extraction of human dorsal root ganglia from organ donors and preparation of primary sensory neuron cultures” Nat Protoc. 11:1877-1888 (2016)). All incisions were closed using veterinary tissue adhesive. After surgery, rats were given analgesic (Flunixin, 2.5 mg/kg s.c.).\nRats were allowed 5-7 days for recovery prior to self-administration.\nThe patency of catheters in the rats was tested using an ultra-short-acting barbiturate methohexital sodium (Brevital, Eli Lilly, Indianapolis, 1N, 10 mg/mL, 2 mg/rat) every 10-12 days during the study. Generally, a total loss of muscle tone within 3 s after a methohexital sodium injection indicates the patency of a catheter. Any animal that failed the test was excluded from the study.\nDuring experimental sessions, each rat was placed in a standard operant chamber, which was placed in a light- and sound-attenuating cubicle (28×26×20 cm; Med Associates Inc., St. Albans, VT). The front door and the back wall of the chamber were made of transparent plastic, and the other walls were opaque metal. The chamber had two retractable response levers mounted on one side of the opaque walls. A stimulus light was mounted above each lever. A drug injection was delivered by a syringe pump (Razel Scientific Instruments, Georgia, VT) located on top of the cubicle. Experimental sessions were controlled and recorded by a PC computer with custom interface and software in the experimental room.\nExperimental sessions were conducted once a day, 5-7 days a week during the dark (active) cycle. After being flushed with 0.9% saline, a rat's indwelling catheter was connected to a tube that exited the chamber through a metal spring and a swivel and was connected to a syringe pump. After the drug delivery system was connected to the rat, the chamber was closed, and the 2 hr session was started immediately. The start of a session was signaled by the presentation of two response levers into the chamber. […] During an injection, stimulus lights above both levers were illuminated and lasted throughout a time-out period (20 s) that followed each injection. Pressing the left lever was counted but had no other programmed consequences. […]"}}, "note": "Where “and” joins values, the source holds several entries; their conditions need not be identical. Equal entries are not always repeated. Where two headings read alike, the source gives them in different places."}
{"compound": "Cc1cc(Nc2cc(N)ncn2)c(=O)n2c1C(=O)NC21CCC2(CC2)CC1", "note": "[4ET-03-053, 6″-((6-Aminopyrimidin-4-yl)amino)-8″-methyl-2″H-dispiro[cyclopropane-1,1′-cyclohexane-4′,3″-imidazo[1,5-a]pyridine]-1″,5″-dione]", "values": [{"measurement": "concentration at 24 hr", "setting": "[1]; brain homogenate, brain homogenate, mean, read-out: Tissue Homogenate Conc., Mean", "result": 122, "unit": "ng/mL"}, {"measurement": "concentration at 24 hr", "setting": "[1]; brain, brain, read-out: Mean Tissue", "result": 489, "unit": "ng/g"}, {"measurement": "concentration at 24 h", "setting": "[1]; brain homogenate, brain homogenate, individual animals (n = 3), read-out: Tissue Homogenate Conc.", "result": 104, "unit": "ng/mL"}, {"measurement": "concentration at 24 h", "setting": "[1]; plasma, plasma, individual animals (n = 3), read-out: Plasma Conc.", "result": 5340, "unit": "ng/mL"}, {"measurement": "concentration at 24 h", "setting": "[1]; plasma, plasma, mean, read-out: Plasma Conc., Mean", "result": 5890, "unit": "ng/mL"}, {"measurement": "Tissue Homogenate Conc.", "setting": "[1]; brain homogenate, individual animals (n = 3)", "result": "127 ng/mL and 136 ng/mL"}, {"measurement": "Plasma Conc.", "setting": "[1]; plasma, individual animals (n = 3)", "result": "6120 ng/mL and 6220 ng/mL"}, {"measurement": "Brain Tissue Homogenate Conc.", "setting": "[2]; individual animals (n = 3)", "result": "5.89 ng/mL and 6.41 ng/mL"}, {"measurement": "Plasma Conc.", "setting": "[2]; individual animals (n = 3)", "result": "584 ng/mL and 661 ng/mL"}, {"measurement": "concentration at 2 h", "setting": "[2]; brain tissue homogenate, individual animals (n = 3), read-out: Brain Tissue Homogenate Conc.", "result": 4.61, "unit": "ng/mL"}, {"measurement": "concentration at 2 h", "setting": "[2]; brain tissue homogenate, mean, read-out: Brain Tissue Homogenate Conc., Mean", "result": 5.64, "unit": "ng/mL"}, {"measurement": "concentration at 2 h", "setting": "[2]; brain tissue, read-out: Brain Mean Tissue", "result": 22.5, "unit": "ng/g"}, {"measurement": "concentration at 2 h", "setting": "[2]; plasma, individual animals (n = 3), read-out: Plasma Conc.", "result": 488, "unit": "ng/mL"}, {"measurement": "concentration at 2 h", "setting": "[2]; plasma, mean, read-out: Plasma Conc., Mean", "result": 578, "unit": "ng/mL"}, {"measurement": "Kp at 2 h", "setting": "[2]; mouse, brain/plasma, read-out: Mean Tissue/Plasma Conc. Ratio (brain to plasma ratio)", "result": 0.039}, {"measurement": "Mean Difference, Šídák's multiple comparisons test", "setting": "Wistar rats", "result": 1.500}, {"measurement": "Summary, Šídák's multiple comparisons test", "setting": "Wistar rats", "result": "ns"}, {"measurement": "addictive potential", "setting": "Wistar rats", "result": "negligible addictive potential"}, {"measurement": "numbers of infusions, multiple comparisons test: 0.05 mg/kg 4ET-03-053 and subsequent oxycodone", "setting": "Wistar rats", "result": "significant differences"}, {"measurement": "numbers of infusions, multiple comparisons test: 0.1 mg/kg 4ET-03-053 and the final oxycodone test", "setting": "Wistar rats", "result": "significant differences"}, {"measurement": "Mean Difference, Šídák's multiple comparisons test", "setting": "Wistar rats; 0.05 mg/kg", "result": "−8.041"}, {"measurement": "Summary, Šídák's multiple comparisons test", "setting": "Wistar rats; 0.05 mg/kg", "result": "ns"}, {"measurement": "Mean Difference, Šídák's multiple comparisons test", "setting": "Wistar rats; 0.15 mg/kg", "result": 5.441}, {"measurement": "Summary, Šídák's multiple comparisons test", "setting": "Wistar rats; 0.15 mg/kg", "result": "ns"}]}
